Literature values, collected in US20220166043A1, “NEGATIVE ELECTRODE ELECTROLYTE SOLUTION FOR REDOX FLOW BATTERIES, AND REDOX FLOW BATTERY” (ARM Technologies Co., Ltd., priority 2019, published 2022).
Where “and” joins values, the source holds several entries; their conditions need not be identical. Equal values may be shown once. Read-outs that look alike come from different tables or passages of the source.

Settings: octanol-water partition coefficient of the negative electrode solvent

## c1ccc(COCCOCc2ccccc2)cc1 [EGDBE, ethylene glycol dibenzyl ether]
  Negative electrode solvent LogP (Log POW): 3.42

## COC1CCCC1 [MCP, methoxycyclopentane]
  Negative electrode solvent LogP (Log POW): 1.575 and 1.58

## Cc1cnc(C)c(C)n1 [2,3,5-trimethylpyrazine]
  Negative electrode solvent LogP (Log POW): 1.402 and 1.40

## 1-methyl-1-propylpyrrolidinium bis(trifluoromethanesulfonyl)imide
  Negative electrode solvent LogP (Log POW): 4.82
Listed as PP13 TFSI
  Negative electrode solvent LogP (Log POW): 4.8165
